Source: ChEMBL document CHEMBL1641434, “Topical anti-inflammatory activity of boropinic acid and its natural and semi-synthetic derivatives” (2011)

How the values were obtained:
Type in all cases: functional
Mus musculus [1] = experiment: Antiinflammatory activity in CD1 mouse assessed as inhibition of croton oil-induced ear edema at 0.3 umol administered topically per cm'2 of ear relative to control
Mus musculus [2] = experiment: Antiinflammatory activity in CD1 mouse assessed as inhibition of croton oil-induced ear edema at 0.1 umol administered topically per cm'2 of ear relative to control
Mus musculus [3] = experiment: Antiinflammatory activity in CD1 mouse assessed as inhibition of croton oil-induced ear edema per cm'2 administered topically
Mus musculus [4] = experiment: Antiinflammatory activity in CD1 mouse assessed as inhibition of croton oil-induced ear edema at 1 umol administered topically per cm'2 of ear relative to control

Row | SMILES | inhibition (INH) (Mus musculus [1]) [%] | inhibition (INH) (Mus musculus [2]) [%] | ID50 (Mus musculus [3]) [µmol] | inhibition (INH) (Mus musculus [4]) [%]
1 | CC(C)=CCOc1ccc(/C=C/C(=O)O)cc1 | 30 | 13 | 0.5 | 67
2 | CC(C)=CCOc1ccc(/C=C/C(=O)O)cc1Cl | 49 | 25 | 0.26 | 91
3 | CC(C)=CCOc1ccc(/C=C/C(=O)O)cc1N | 43 | 22 | 0.33 | 81
4 | CC(C)=CCOc1ccc(/C=C/C(=O)O)cc1C | 23 | – | – | –
5 | COc1cc(/C=C/C(=O)O)ccc1OCC=C(C)C [BOROPINIC ACID] | 36 | 12 | 0.72 | 55
6 | CC(C)=CCOc1ccc(/C=C/C(=O)O)cc1I | 67 | 30 | 0.2 | 88
7 | CC(C)=CCOc1ccc(/C=C/C(=O)O)cc1Br | 19 | – | – | –
8 | CC(Cc1ccc(O)c(O)c1)C(C)Cc1ccc(O)c(O)c1 (stereo not given) [NORDIHYDROGUAIARETIC ACID] | 33 | 19 | 0.54 | 65
9 | CC(C)=CCOc1ccc(/C=C/C(=O)O)cc1[N+](=O)[O-] | 68 | 33 | 0.18 | 91
10 | CC(C)=CCOc1ccc(/C=C/C(=O)O)cc1F | 39 | – | – | –
11 | COc1ccc2c(c1)c(CC(=O)O)c(C)n2C(=O)c1ccc(Cl)cc1 [INDOMETHACIN] | 62 | 26 | 0.23 | 87
